The source of these data is publication PMC8868346, “Novel Series of Dual NRF2 Inducers and Selective MAO-B Inhibitors for the Treatment of Parkinson’s Disease” (Antioxidants, 2022).

For assay [1], the system named is rat striatal slices. Put plainly: Rat striatal slices exposed to rotenone: ROS production. Particulars: compound 10 µM, rotenone 10 µM, 4 h. The format is cell-based. As to the method: (§1) Three- to four-month-old Sprague–Dawley rats were decapitated, the brain was removed, and the two brain hemispheres were separated. Each hemisphere was then cut into 300-µm coronal slices using a McIlwain Tissue Chopper (Cavey Laboratory Engineering, Surrey, UK) and separated in a previously oxygenated (95% O2 and 5% CO2) ice-cold Krebs’s dissection buffer (120 mM of NaCl; 2 mM of KCl; 26 mM of NaHCO3; 1.18 mM of KH2PO4; 10 mM of MgSO4; 0.5 mM of CaCl2; 11 mM of glucose; and 200 mM sucrose at pH 7.4) using a Leica SE6 microscope (Leica, Madrid, Spain). Striatum-containing slices were selected and immediately incubated for stabilization in dissection buffer without sucrose, bubbled with 95% O2 and 5% CO2 for 45 min at 34 °C, allowing slices to recover from slicing injury. […] Finally, cell death and the ROS production were measured.
(§2) ROS quantification was performed using the fluorescent probe 2,7′-dichlorodihydrofluorescein diacetate (H2DCFDA, λEx/Em = 495/529 nm; Thermo Fisher, Madrid, Spain). Cell death quantification was performed using the fluorescent probe propidium iodide (PI, λEx/Em = 535/617 nm; Thermo Fisher, Madrid, Spain). […] Fluorescence from striatum slices was then recorded for H2DCFDA (λEx/Em = 495/529 nm), PI (λEx/Em = 535/617 nm), and Hoechst (λEx/Em = 350/461 nm), in an inverted Nikon Eclipse T2000-U microscope (Nikon, Tokyo, Japan). […]

The subject of assay [2] is rat striatal slices. Kind of assay: Rat striatal slices exposed to 6-OHDA: cell death and ROS production. The format is cell-based. Particulars: compound 10 µM, 6-OHDA 100 µM, 4 h. As to the method: as §1, §2

For `C#CCN(CC#C)CCc1c[nH]c2ccc(OC(=O)C=Cc3ccccc3)cc12` [Compound 14, 3-(2-(Di(prop-2-yn-1-yl)amino)ethyl)-1H-indol-5-yl Cinnamate], in the assay with rat striatal slices [1], the “ROS levels (H2DCFDA), rotenone model” value was “reduced”. For the same molecule, in the assay with rat striatal slices [2], the “ROS production (H2DCFDA), 6-OHDA model” value is listed as “significantly decreased ROS production” and the “cell death (propidium iodide), 6-OHDA model” value is “significant reduction in cell death”.
